The target in test [1] is T1, human TLR7 (Homo sapiens, UniProt Q9NYK1).
T1 construct: host or cells: HEK-Blue cells
T1 sequence (Q9NYK1 27-1049): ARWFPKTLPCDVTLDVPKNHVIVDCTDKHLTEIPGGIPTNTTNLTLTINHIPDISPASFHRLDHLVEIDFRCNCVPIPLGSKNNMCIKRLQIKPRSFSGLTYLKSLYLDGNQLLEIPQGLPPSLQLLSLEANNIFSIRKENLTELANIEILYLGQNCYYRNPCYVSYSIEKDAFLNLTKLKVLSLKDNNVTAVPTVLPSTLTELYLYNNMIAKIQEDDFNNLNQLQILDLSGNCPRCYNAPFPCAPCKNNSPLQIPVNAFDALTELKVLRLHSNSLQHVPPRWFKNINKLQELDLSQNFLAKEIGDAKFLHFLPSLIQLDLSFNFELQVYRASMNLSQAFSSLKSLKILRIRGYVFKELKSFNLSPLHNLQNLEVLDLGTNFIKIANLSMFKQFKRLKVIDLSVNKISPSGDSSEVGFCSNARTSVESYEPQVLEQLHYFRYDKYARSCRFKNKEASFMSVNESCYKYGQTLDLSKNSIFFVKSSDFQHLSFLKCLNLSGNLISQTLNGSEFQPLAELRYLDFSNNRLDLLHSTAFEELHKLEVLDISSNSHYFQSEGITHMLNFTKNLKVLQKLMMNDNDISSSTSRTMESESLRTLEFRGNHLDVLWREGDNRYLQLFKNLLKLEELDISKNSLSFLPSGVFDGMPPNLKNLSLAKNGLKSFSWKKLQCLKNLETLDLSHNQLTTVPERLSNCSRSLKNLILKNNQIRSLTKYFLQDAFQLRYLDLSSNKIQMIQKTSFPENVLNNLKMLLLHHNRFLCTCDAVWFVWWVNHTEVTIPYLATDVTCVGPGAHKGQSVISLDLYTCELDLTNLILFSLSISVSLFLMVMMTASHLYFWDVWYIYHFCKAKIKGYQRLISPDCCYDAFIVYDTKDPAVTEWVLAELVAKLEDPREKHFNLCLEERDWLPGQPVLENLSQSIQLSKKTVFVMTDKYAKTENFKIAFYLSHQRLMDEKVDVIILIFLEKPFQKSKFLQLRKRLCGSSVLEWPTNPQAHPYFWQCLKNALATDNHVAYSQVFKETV
The test is described as follows: TLR7 inhibition reporter assay (HEK-Blue cells, SEAP reporter, gardiquimod stimulation). It counts as cell-based. The note with it: HEK-Blue cells overexpressing human TLR7, gardiquimod 7.5 μM. The procedure, abridged:
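Dose-response testing from 0.05 nM to 50 μM final was done on reporter cells for 22 hours at 37° C. Secreted SEAP was then detected, and inhibition was calculated as percent reduction of the agonist-plus-DMSO signal compared with wells given a known inhibitor.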

For test [2], the target named is T2, human TLR9 (Homo sapiens, UniProt Q9NR96).
T2 construct: host or cells: HEK-Blue cells
T2 sequence (Q9NR96 26-1032): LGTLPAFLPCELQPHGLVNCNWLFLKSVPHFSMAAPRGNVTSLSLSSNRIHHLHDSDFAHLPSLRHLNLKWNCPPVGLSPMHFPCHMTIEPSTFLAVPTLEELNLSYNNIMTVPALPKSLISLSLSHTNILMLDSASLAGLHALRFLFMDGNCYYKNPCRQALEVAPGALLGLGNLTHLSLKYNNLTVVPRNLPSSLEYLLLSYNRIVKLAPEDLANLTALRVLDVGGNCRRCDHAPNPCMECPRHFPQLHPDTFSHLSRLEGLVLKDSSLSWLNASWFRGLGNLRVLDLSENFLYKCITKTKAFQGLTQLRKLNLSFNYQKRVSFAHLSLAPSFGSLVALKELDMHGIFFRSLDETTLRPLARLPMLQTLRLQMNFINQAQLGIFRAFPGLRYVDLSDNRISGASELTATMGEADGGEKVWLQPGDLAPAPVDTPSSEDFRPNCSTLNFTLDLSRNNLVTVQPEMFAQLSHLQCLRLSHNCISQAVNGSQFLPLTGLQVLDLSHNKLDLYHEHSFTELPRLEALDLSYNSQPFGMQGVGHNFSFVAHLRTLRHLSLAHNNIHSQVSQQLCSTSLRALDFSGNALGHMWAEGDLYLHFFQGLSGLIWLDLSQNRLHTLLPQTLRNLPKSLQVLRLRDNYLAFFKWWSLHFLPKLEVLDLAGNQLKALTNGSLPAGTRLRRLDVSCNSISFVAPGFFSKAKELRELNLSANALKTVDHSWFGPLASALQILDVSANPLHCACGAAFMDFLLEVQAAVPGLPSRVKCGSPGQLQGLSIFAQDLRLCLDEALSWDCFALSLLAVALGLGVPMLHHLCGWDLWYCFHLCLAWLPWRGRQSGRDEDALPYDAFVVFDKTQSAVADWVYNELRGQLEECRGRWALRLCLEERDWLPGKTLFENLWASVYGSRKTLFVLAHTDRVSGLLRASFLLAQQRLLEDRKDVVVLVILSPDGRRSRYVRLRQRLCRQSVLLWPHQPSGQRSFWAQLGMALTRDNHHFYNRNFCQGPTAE
The test is described as follows: TLR9 inhibition reporter assay (HEK-Blue cells, SEAP reporter, ODN2006 stimulation). It counts as cell-based. The note with it: HEK-Blue cells overexpressing human TLR9, ODN2006 5 nM. The procedure, abridged: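 Screening used HEK-Blue cells overexpressing one human TLR (7, 8 or 9) and an IFN-β minimal promoter–NF-κB/AP-1 SEAP construct. Stimulation lasted 22 h at 37 °C with receptor-specific agonist: gardiquimod, R848 or ODN2006 at 7.5 μM, 15.9 μM and 5 nM.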
(In general: In a reporter assay the amount or activity of a reporter protein is the signal.)

The IC50 is the point on the concentration scale where inhibition reaches its midpoint.

With `COc1ccc(-c2[nH]c3ccc(C4CCN(C(=O)CN(C)C(C)C)CC4)cc3c2C(C)C)cc1OC` [Example 227, 1-(4-(2-(3,4-dimethoxyphenyl)-3-isopropyl-1H-indol-5-yl)piperidin-1-yl)-2-(isopropyl(methyl)amino) ethan-1-one], the results for the half-inhibitory concentration (IC50) in test [1] and in test [2] were 29 nM and 1730 nM, respectively.

Turning to `COc1ccc(-c2[nH]c3ccc(C4CCNCC4O)cc3c2C(C)C)cc1OC` (single isomer, unassigned) [Example 318, 4-(2-(3,4-dimethoxyphenyl)-3-isopropyl-1H-indol-5-yl)piperidin-3-ol 2,2,2-trifluoroacetate], the IC50 in test [1] was 3280 nM; in test [2], 11200 nM.

In the case of `COc1ccc(-c2[nH]c3ccc(C4CCN(C(=O)CNCCC(C)O)CC4)cc3c2C(C)C)cc1OC` (centres unmarked) [Example 237, 1-(4-(2-(3,4-dimethoxyphenyl)-3-isopropyl-1H-indol-5-yl)piperidin-1-yl)-2-((3-hydroxybutyl)amino)ethan-1-one], the IC50 in test [1] turned out to be 15 nM; in test [2] it was 1160 nM.

Take `COc1ccc(-c2[nH]c3ccc(C4CCN(C(=O)CN5CCC[C@@H](C(=O)N6CCN(C(C)C)CC6)C5)CC4)cc3c2C(C)C)cc1OC` [Example 302, (R)-1-(4-(2-(3,4-dimethoxyphenyl)-3-isopropyl-1H-indol-5-yl)piperidin-1-yl)-2-(3-(4-isopropylpiperazine-1-carbonyl)piperidin-1-yl)ethan-1-one]: the IC50 came to 40 nM in test [1] and 564 nM in test [2].

As to `COc1ccc(-c2[nH]c3ccc(C4CCN(C(=O)CN5CCC(O)CC5)CC4)cc3c2C(C)C)cc1OC` [Example 238, 1-(4-(2-(3,4-dimethoxyphenyl)-3-isopropyl-1H-indol-5-yl)piperidin-1-yl)-2-(4-hydroxypiperidin-1-yl) ethan-1-one], the IC50 in test [1] was found to be 36 nM; in test [2] it was 1420 nM.

For the molecule `COc1ccc(-c2[nH]c3ccc(C4CCN(C(=O)CN5CCC[C@@H](C(=O)N6C(C)CCC6C)C5)CC4)cc3c2C(C)C)cc1OC` (stereo partly drawn) [Example 311, 1-(4-(2-(3,4-dimethoxyphenyl)-3-isopropyl-1H-indol-5-yl)piperidin-1-yl)-2-((3R)-3-(2,5-dimethylpyrrolidine-1-carbonyl)piperidin-1-yl)ethan-1-one], the IC50 in test [1] amounted to 148 nM; in test [2], 2480 nM.

In the case of `COc1ccc(-c2[nH]c3ccc(C4CCN(Cc5cnn(C)c5)CC4)cc3c2C(C)C)cc1OC` [Example 259, 2-(3,4-dimethoxyphenyl)-3-isopropyl-5-(1-((1-methyl-1H-pyrazol-4-yl)methyl)piperidin-4-yl)-1H-indole], the IC50 stood at 40 nM in test [1] and 2030 nM in test [2].

Regarding `COc1ccc(-c2[nH]c3ccc(C4CCN(Cc5cnc(C)[nH]5)CC4)cc3c2C(C)C)cc1OC` [Example 266, 2-(3,4-dimethoxyphenyl)-3-isopropyl-5-(1-((2-methyl-1H-imidazol-5-yl)methyl)piperidin-4-yl)-1H-indole], the IC50 in test [1] was 48 nM; in test [2], 1260 nM.

For `COc1ccc(-c2[nH]c3ccc(C4CCN(C(=O)CN5CCC[C@H](C(=O)N6CCC(N(C)C)CC6)C5)CC4)cc3c2C(C)C)cc1OC` [Example 289, (S)-1-(4-(2-(3,4-dimethoxyphenyl)-3-isopropyl-1H-indol-5-yl)piperidin-1-yl)-2-(3-(4-(dimethylamino)piperidine-1-carbonyl)piperidin-1-yl)ethan-1-one], the IC50 is 13 nM in test [1] and 502 nM in test [2].

On to `COc1ccc(-c2[nH]c3ccc(C4CCN(C(=O)CN5CCC[C@@H](C(=O)NCC#N)C5)CC4)cc3c2C(C)C)cc1OC` [Example 308, (R)—N-(cyanomethyl)-1-(2-(4-(2-(3,4-dimethoxyphenyl)-3-isopropyl-1H-indol-5-yl)piperidin-1-yl)-2-oxoethyl)piperidine-3-carboxamide], for which the IC50 was determined as 37 nM in test [1] and 2610 nM in test [2].

On to `CCN(CC)C(=O)C1CCCN(CC(=O)N2CCC(c3ccc4[nH]c(-c5ccc(OC)c(OC)c5)c(C(C)C)c4c3)CC2)C1` (centres unmarked) [Example 247, 1-(2-(4-(2-(3,4-dimethoxyphenyl)-3-isopropyl-1H-indol-5-yl)piperidin-1-yl)-2-oxoethyl)-N,N-diethylpiperidine-3-carboxamide], for which the IC50 came out at 40 nM in test [1] and 4130 nM in test [2].

In the case of `COc1ccc(-c2[nH]c3ccc(C4CCN(C(=O)CN5CCC[C@H](C(=O)N6CCCC(O)C6)C5)CC4)cc3c2C(C)C)cc1OC` (stereo partly drawn) [Example 292, 1-(4-(2-(3,4-dimethoxyphenyl)-3-isopropyl-1H-indol-5-yl)piperidin-1-yl)-2-((3S)-3-(3-hydroxypiperidine-1-carbonyl)piperidin-1-yl)ethan-1-one], the IC50 in test [1] came out at 22 nM; in test [2], 1810 nM.

Turning to `COc1ccc(-c2[nH]c3ccc(C4CCN(C(=O)CN(C)CCO)CC4)cc3c2C(C)C)cc1OC` [Example 242, 1-(4-(2-(3,4-dimethoxyphenyl)-3-isopropyl-1H-indol-5-yl)piperidin-1-yl)-2-((2-hydroxyethyl)(methyl)amino)ethan-1-one], the IC50 was 23 nM in test [1] and 976 nM in test [2].

For `COc1ccc(-c2[nH]c3ccc(C4CCN(C(=O)CNCC(N)=O)CC4)cc3c2C(C)C)cc1OC` [Example 228, 2-((2-(4-(2-(3,4-dimethoxyphenyl)-3-isopropyl-1H-indol-5-yl)piperidin-1-yl)-2-oxoethyl)amino)acetamide], the IC50 came to 46 nM in test [1] and 15100 nM in test [2].

For the molecule `COc1ccc(-c2[nH]c3ccc(C4CCN(C5CCN(C6CC6)CC5)CC4)cc3c2C)cc1OC` [Example 23, 5-(1′-cyclopropyl-[1,4′-bipiperidin]-4-yl)-2-(3,4-dimethoxyphenyl)-3-methyl-1H-indole], the concentration for half-maximal inhibition (IC50) in test [1] amounted to 101 nM; in test [2] it was 154 nM.

Turning to `COc1ccc(-c2[nH]c3ccc(C4CCN(C(=O)CN5CCC(N6CCN(C)CC6)CC5)CC4)cc3c2C(C)C)cc1OC` [Example 241, 1-(4-(2-(3,4-dimethoxyphenyl)-3-isopropyl-1H-indol-5-yl)piperidin-1-yl)-2-(4-(4-methylpiperazin-1-yl)piperidin-1-yl)ethan-1-one], the IC50 came to 12 nM in test [1] and 571 nM in test [2].

Values taken from patent US11180474B2 (BRISTOL-MYERS SQUIBB COMPANY, priority 2016, dated 2021).
